Measured values reported in US20100184596A1, “METHOD FOR THE CONTROL OF WEEDS IN TURF” (SYNGENTA CROP PROTECTION, INC., priority 2007, published 2010).

Legend:
Type in all cases: in vivo
[1] = system: Hydrocotyle sp. (dollarweed); test: Example B7, conclusion in words
Description: (§1) The weed control efficacy of the compound of formula I in combination with various safeners was tested. The combinations were applied by post emergence spray application. Percentage weed control assessments were taken at various timepoints.

[2] = system: Perennial ryegrass v. blend of Bright Star, Citation Fore and Quick Trans; test: Phytotoxicity of granule formulations with safeners (Table B4.5); settings: 8 DAT
Description: (§2) The phytotoxicity to turfgrass of the compound of formula I in combination with various safeners was tested. The combinations were applied by post emergence spray application. Percentage phytotoxicity assessments were taken at various timepoints. The safeners tested in these trials were cloquintocet-mexyl, cyprosulfamide, a compound of formula 2.3, and isoxadifen-ethyl.
Tables B4.4 and B4.5 present the results of trials using safeners applied in combination with granule formulations of the compound of formula I.

[3] = system: Trifolium repens (white clover); test: Weed control via post emergence spray, in St. Augustinegrass v. Floratam (Table B5.4)
Description: (§3) The weed control efficacy of the compound of formula I was tested. The compound was applied via post emergence spray to a range of weeds, at various rates and spray treatment treatment regimes. Percentage weed control assessments were taken at various timepoints.

[4] = system: Trifolium repens (clover); test: Weed control via post emergence spray, in bluegrass/fescue mix (Table B5.6)
Description: as §3

[5] = system: Hydrocotyle sp. (dollarweed); test: Weed control in combination with safeners, post emergence spray, in St. Augustinegrass v. Delmar (Table B7.1); settings: no safener, 100 g ai/ha
Description: as §1

[6] = system: St. Augustinegrass v. Floratam; test: Phytotoxicity in combination with safeners, post emergence spray (Table B4.2); settings: no safener, 100 g ai/ha
Description: as §2

[7] = system: St. Augustinegrass v. Delmar; test: Phytotoxicity via post emergence spray application (Table B2.8); settings: 1 appl
Description: The phytotoxicity of the compound of formula I to turfgrass species was tested. The compound was applied via post emergence spray to a range of warm and cool season turfgrass species at various rates and spray treatment treatment regimes. Percentage phytotoxicity assessments were taken at various timepoints.

[8] = system: Taraxacum officinale (dandelion); test: Weed control via post emergence spray, in perennial ryegrass/fine fescue mix (Table B5.5)
Description: as §3

[9] = system: clover and dandelion in turfgrass varieties; test: Example B1, conclusion in words; settings: in Kentucky bluegrass, tall fescue and perennial ryegrass at the tested application rates
Description: The selectivity of the compound of formula I in turf (removal of grassy and broadleaf weeds) has been tested in turfgrass varieties selected from Kentucky bluegrass, tall fescue and perennial ryegrass and in […] selected from clover (an aggressive perennial weed) and dandelion (a weed of perennial horticultural crops and gardens which may also be a problem in some annual crops, particularly where reduced tillage is practiced).
The trials were conducted in Champaign, Ill., U.S. (Table B1.1) and Hudson, N.Y., U.S. (Table B1.2) under field conditions. Turfgrasses were maintained at approximately a 2.5″ height, like a home lawn. Mixed turf and weed stands were present. The test compounds were applied with a CO2 pressurized backpack sprayer by spraying in the form of an aqueous suspension (prepared from a wettable powder) in a concentration of 210 to 280 g/ha. The plots were then mowed and irrigated as needed. After 22 and 28 days respectively, the test is visually evaluated (100%=total damage to plant; 0%=no damage to plant).

[10] = system: turfgrass weeds; test: Example B5, conclusion in words; settings: post emergence spray
Description: as §3

SMILES: COCCOCc1nc(C(F)(F)F)ccc1C(=O)C1=C(O)C2CCC(C2)C1=O (stereo not drawn) [Formula I, 4-Hydroxy-3-[2-(2-methoxyethoxymethyl)-6-trifluoromethylpyridine-3-carbonyl]-bicyclo[3.2.1]oct-3-en-2-one]
- herbicidal efficacy in presence of a safener, in words [1]: does not significantly effect the herbicidal efficacy
- % phytotoxicity ([2]; DG Lite granule, no safener, 520 g ai/ha): 18.8%
- % phytotoxicity ([2]; DG Lite granule, safener Cyprosulfamide (0.07%), 520 g ai/ha): 21.3%
- % phytotoxicity ([2]; DG Lite granule, safener Formula 2.3 (0.07%), 520 g ai/ha): 20.0%
- % phytotoxicity ([2]; DG Lite granule, safener Isoxadifen (0.07%), 520 g ai/ha): 21.3%
- % phytotoxicity ([2]; Spray, no safener, 260 g ai/ha): 31.3%
- % control ([3]; 1 appl, 140 g ai/ha, 5 DAT): 21.67%
- % control ([3]; 1 appl, 140 g ai/ha, 13 DAT): 86.67%
- % control ([3]; 1 appl, 140 g ai/ha, 21 DAT): 85.00%
- % control ([3]; 1 appl, 140 g ai/ha, 27 DAT): 88.33%
- % control ([3]; 1 appl, 140 g ai/ha, 35 DAT): 78.33%
- % control ([3]; 1 appl, 140 g ai/ha, 42 DAT): 76.67%
- % control ([3]; 1 appl, 140 g ai/ha, 61 DAT): 76.67%
- % control ([3]; 1 appl, 280 g ai/ha, 5 DAT): 25.00%
- % control ([3]; 1 appl, 280 g ai/ha, 13 DAT): 91.67%
- % control ([3]; 1 appl, 280 g ai/ha, 21 DAT): 90.00%
- % control ([3]; 1 appl, 280 g ai/ha, 27 DAT): 93.33%
- % control ([3]; 1 appl, 280 g ai/ha, 35 DAT): 91.67%
- % control ([3]; 1 appl, 280 g ai/ha, 42 DAT): 90.00%
- % control ([3]; 1 appl, 280 g ai/ha, 61 DAT): 90.00%
- % control ([3]; 2 appl, 140 g ai/ha, 5 DAT): 25.00%
- % control ([3]; 2 appl, 140 g ai/ha, 13 DAT): 88.33%
- % control ([3]; 2 appl, 140 g ai/ha, 21 DAT): 86.67%
- % control ([3]; 2 appl, 140 g ai/ha, 27 DAT): 91.67%
- % control ([3]; 2 appl, 140 g ai/ha, 35 DAT): 96.00%
- % control ([3]; 2 appl, 140 g ai/ha, 42 DAT): 96.67%
- % control ([3]; 2 appl, 140 g ai/ha, 61 DAT): 100.00%
- % control ([3]; 2 appl, 280 g ai/ha, 5 DAT): 26.67%
- % control ([3]; 2 appl, 280 g ai/ha, 13 DAT): 95.00%
- % control ([3]; 2 appl, 280 g ai/ha, 21 DAT): 93.33%
- % control ([3]; 2 appl, 280 g ai/ha, 27 DAT): 95.00%
- % control ([3]; 2 appl, 280 g ai/ha, 35 DAT): 99.33%
- % control ([3]; 2 appl, 280 g ai/ha, 42 DAT): 100.00%
- % control ([3]; 2 appl, 280 g ai/ha, 61 DAT): 100.00%
- % control ([4]; 10 g ai/ha, 7 DAT): 0.00%
- % control ([4]; 10 g ai/ha, 14 DAT): 21.25%
- % control ([4]; 10 g ai/ha, 22 DAT): 23.75%
- % control ([4]; 10 g ai/ha, 29 DAT): 8.75%
- % control ([4]; 10 g ai/ha, 46 DAT): 10.00%
- % control ([4]; 20 g ai/ha, 7 DAT): 0.00%
- % control ([4]; 20 g ai/ha, 14 DAT): 22.50%
- % control ([4]; 20 g ai/ha, 22 DAT): 28.75%
- % control ([4]; 20 g ai/ha, 29 DAT): 22.50%
- % control ([4]; 20 g ai/ha, 46 DAT): 28.75%
- % control ([4]; 40 g ai/ha, 7 DAT): 11.25%
- % control ([4]; 40 g ai/ha, 14 DAT): 21.25%
- % control ([4]; 40 g ai/ha, 22 DAT): 22.50%
- % control ([4]; 40 g ai/ha, 29 DAT): 35.00%
- % control ([4]; 40 g ai/ha, 46 DAT): 47.50%
- % control ([4]; 80 g ai/ha, 7 DAT): 17.50%
- % control ([4]; 80 g ai/ha, 14 DAT): 22.50%
- % control ([4]; 80 g ai/ha, 22 DAT): 30.00%
- % control ([4]; 80 g ai/ha, 29 DAT): 52.50%
- % control ([4]; 80 g ai/ha, 46 DAT): 81.25%
- % control ([4]; 160 g ai/ha, 7 DAT): 22.50%
- % control ([4]; 160 g ai/ha, 14 DAT): 27.50%
- % control ([4]; 160 g ai/ha, 22 DAT): 41.25%
- % control ([4]; 160 g ai/ha, 29 DAT): 76.25%
- % control ([4]; 160 g ai/ha, 46 DAT): 91.25%
- % control ([5]; 7 DAT): 41.70%
- % control ([5]; 11 DAT): 61.70%
- % control ([5]; 18 DAT): 61.70%
- % phytotoxicity ([6]; 9 DAT): 46.70%
- % phytotoxicity ([6]; 13 DAT): 50.00%
- % phytotoxicity ([6]; 19 DAT): 11.70%
- % phytotoxicity ([6]; 25 DAT): 5.00%
- % phytotoxicity ([7]; 10 g ai/ha, 5 DAT): 5.00%
- % phytotoxicity ([7]; 10 g ai/ha, 12 DAT): 5.00%
- % phytotoxicity ([7]; 10 g ai/ha, 18 DAT): 0.00%
- % phytotoxicity ([7]; 10 g ai/ha, 28 DAT): 0.00%
- % phytotoxicity ([7]; 20 g ai/ha, 5 DAT): 6.67%
- % phytotoxicity ([7]; 20 g ai/ha, 12 DAT): 6.67%
- % phytotoxicity ([7]; 20 g ai/ha, 18 DAT): 2.00%
- % phytotoxicity ([7]; 20 g ai/ha, 28 DAT): 0.00%
- % phytotoxicity ([7]; 40 g ai/ha, 5 DAT): 11.67%
- % phytotoxicity ([7]; 40 g ai/ha, 12 DAT): 18.33%
- % phytotoxicity ([7]; 40 g ai/ha, 18 DAT): 4.00%
- % phytotoxicity ([7]; 40 g ai/ha, 28 DAT): 0.00%
- % phytotoxicity ([7]; 80 g ai/ha, 5 DAT): 16.67%
- % phytotoxicity ([7]; 80 g ai/ha, 12 DAT): 30.00%
- % phytotoxicity ([7]; 80 g ai/ha, 18 DAT): 5.00%
- % phytotoxicity ([7]; 80 g ai/ha, 28 DAT): 0.67%
- % phytotoxicity ([7]; 160 g ai/ha, 5 DAT): 23.33%
- % phytotoxicity ([7]; 160 g ai/ha, 12 DAT): 46.67%
- % phytotoxicity ([7]; 160 g ai/ha, 18 DAT): 8.33%
- % phytotoxicity ([7]; 160 g ai/ha, 28 DAT): 3.00%
- % control ([8]; 1 appl, 140 g ai/ha, 14 DAT): 32.50%
- % control ([8]; 1 appl, 140 g ai/ha, 21 DAT): 87.50%
- % control ([8]; 1 appl, 280 g ai/ha, 14 DAT): 37.50%
- % control ([8]; 1 appl, 280 g ai/ha, 21 DAT): 90.00%
- % control ([8]; 2 appl, 140 g ai/ha, 14 DAT): 47.50%
- % control ([8]; 2 appl, 140 g ai/ha, 21 DAT): 87.50%
- % control ([8]; 2 appl, 280 g ai/ha, 14 DAT): 41.25%
- % control ([8]; 2 appl, 280 g ai/ha, 21 DAT): 90.00%
- selective weed control in turfgrass, in words [9]: suitable to combat undesired broadleaf weeds like clover and dandelion in turfgrass varieties
- weed control, in words [10]: effective at controlling a variety of turfgrass weeds, even when applied at low rates
